Measurements taken from BigSolDB 2.1.

CN(Cc1ccccc1)CN1C(=O)C(=NNC(=O)c2ccccc2OCc2ccccc2)c2ccccc21
Settings | solubility (mole fraction)
in PEG-400, 298.15 K | 0.00711
in PEG-400, 303.15 K | 0.00781
in PEG-400, 308.15 K | 0.00887
in PEG-400, 313.15 K | 0.00992
in PEG-400, 318.15 K | 0.0114

solubility (mole fraction)
Settings | in ethanol | in ethylene glycol | in isopropanol | in n-butanol | in propylene glycol | in sec-butanol | in transcutol | in water
298.15 K | 0.000474 | 0.000304 | 0.000414 | 0.000759 | 0.000362 | 0.000808 | 0.00394 | 1.11e-06
303.15 K | 0.000583 | 0.000416 | 0.00053 | 0.00091 | 0.000488 | 0.000968 | 0.00453 | 1.5e-06
308.15 K | 0.000715 | 0.000536 | 0.000658 | 0.00106 | 0.000624 | 0.00113 | 0.00533 | 1.93e-06
313.15 K | 0.000832 | 0.000671 | 0.000802 | 0.00122 | 0.000782 | 0.00129 | 0.00618 | 2.46e-06
318.15 K | 0.000969 | 0.000809 | 0.000941 | 0.00138 | 0.000952 | 0.00145 | 0.00714 | 3e-06
